Reference: ChEMBL document CHEMBL5316381, “Discovery of [1,2,3]Triazolo[4,5-c]quinoline Derivatives as a New Class of Ataxia-Telangiectasia Mutated Kinase Inhibitors” (ACS Med Chem Lett, 2023)
Activity calls are given as the source filed them. The rule behind the calls is not given here.

Legend:
[1] = molecular target: Serine/threonine-protein kinase ATR (Homo sapiens, UniProt Q13535); assay: Inhibition of ATR (unknown origin) using GST-cMyc-p53 as substrate incubated for 30 mins in the presence of Mg/ATP mix by HTRF-based analysis
[2] = molecular target: Phosphatidylinositol 4,5-bisphosphate 3-kinase catalytic subunit gamma isoform (Homo sapiens, UniProt P48736); assay: Inhibition of human PI3K p120 gamma using phosphatidylinositol-4, 5-bisphosphate as substrate incubated for 30 mins in the presence of Mg/ATP mix by HTRF-based analysis
SW-620 [3] = assay: Cell cycle arrest in human SW620 cells assessed as accumulation of cells at G2/M phase upto 100 nM incubated for 24 hrs by PI staining based flow cytometric analysis; assay type: functional
SW-620 [4] = assay: Cell cycle arrest in human SW620 cells assessed as accumulation of cells at G2/M phase incubated for 24 hrs in presence of CPT-11 by PI staining based flow cytometric analysis; assay type: functional; details: dose 10-100 nM
SW-620 [5] = assay: Induction of apoptosis in human SW620 cells assessed as viable cells at 30 nM measured after 72 hrs in presence of CPT-11 by Annexin V-FITC staining based flow cytometric analysis (reference value: 87.36%); assay type: functional; details: read-out: Activity
SW-620 [6] = assay: Induction of apoptosis in human SW620 cells assessed as viable cells at 10 nM measured after 72 hrs in presence of CPT-11 by Annexin V-FITC staining based flow cytometric analysis (reference value: 87.36%); assay type: functional; details: read-out: Activity
SW-620 [7] = assay: Induction of apoptosis in human SW620 cells assessed as early apoptotic cells at 10 nM measured after 72 hrs in presence of CPT-11 by Annexin V-FITC staining based flow cytometric analysis (reference value: 1.06%); assay type: functional
SW-620 [8] = assay: Induction of apoptosis in human SW620 cells assessed as early apoptotic cells at 100 nM measured after 72 hrs by Annexin V-FITC staining based flow cytometric analysis (reference value: 1.06%); assay type: functional
SW-620 [9] = assay: Induction of apoptosis in human SW620 cells assessed as late apoptotic cells at 100 nM measured after 72 hrs by Annexin V-FITC staining based flow cytometric analysis (reference value: 5.75%); assay type: functional
HCT-116 [10] = assay: Induction of apoptosis in human HCT-116 cells assessed as viable cells at 1 uM measured after 72 hrs by Annexin V-FITC staining based flow cytometric analysis (reference value: 73.74%); assay type: functional; details: read-out: Activity
HCT-116 [11] = assay: Induction of apoptosis in human HCT-116 cells assessed as necrotic cells at 100 nM measured after 72 hrs in presence of CPT-11 by Annexin V-FITC staining based flow cytometric analysis (reference value: 2.41%); assay type: functional
HCT-116 [12] = assay: Induction of apoptosis in human HCT-116 cells assessed as early apoptotic cells at 100 nM measured after 72 hrs by Annexin V-FITC staining based flow cytometric analysis (reference value: 4.06%); assay type: functional
HCT-116 [13] = assay: Induction of apoptosis in human HCT-116 cells assessed as late apoptotic cells at 100 nM measured after 72 hrs by Annexin V-FITC staining based flow cytometric analysis (reference value: 19.80%); assay type: functional
[14] = molecular target: Serine-protein kinase ATM (Homo sapiens, UniProt Q13315); assay: Inhibition of ATM phosphorylation in human SW620 cells with IR-induced DNA damage in the presence of 3 Gy irradiation by Western blot analysis; assay type: cell-based; details: dose 3-250 nM
[15] = molecular target: T1, Serine/threonine-protein kinase Chk1 (Homo sapiens) (UniProt O14757); assay: Inhibition of CPT-11 induced Chk1 phosphorylation in human SW620 cells by SDS-PAGE based Westernblot analysis; assay type: cell-based
T1 sequence (whole entry): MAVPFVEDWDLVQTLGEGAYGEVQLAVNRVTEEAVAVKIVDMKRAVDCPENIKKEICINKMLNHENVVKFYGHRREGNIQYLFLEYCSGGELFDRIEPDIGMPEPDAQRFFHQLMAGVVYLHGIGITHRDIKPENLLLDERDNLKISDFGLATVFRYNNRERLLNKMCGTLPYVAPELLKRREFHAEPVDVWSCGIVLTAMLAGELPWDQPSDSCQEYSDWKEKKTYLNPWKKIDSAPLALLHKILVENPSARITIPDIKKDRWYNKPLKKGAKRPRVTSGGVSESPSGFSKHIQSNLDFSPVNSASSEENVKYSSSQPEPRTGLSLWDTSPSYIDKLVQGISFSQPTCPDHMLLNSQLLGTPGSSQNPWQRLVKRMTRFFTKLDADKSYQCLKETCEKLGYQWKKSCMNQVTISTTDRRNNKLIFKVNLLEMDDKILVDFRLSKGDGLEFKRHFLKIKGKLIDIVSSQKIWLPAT

Phosphatidylinositol 4,5-bisphosphate 3-kinase catalytic subunit gamma isoform, sequence (P48736 whole entry, canonical isoform): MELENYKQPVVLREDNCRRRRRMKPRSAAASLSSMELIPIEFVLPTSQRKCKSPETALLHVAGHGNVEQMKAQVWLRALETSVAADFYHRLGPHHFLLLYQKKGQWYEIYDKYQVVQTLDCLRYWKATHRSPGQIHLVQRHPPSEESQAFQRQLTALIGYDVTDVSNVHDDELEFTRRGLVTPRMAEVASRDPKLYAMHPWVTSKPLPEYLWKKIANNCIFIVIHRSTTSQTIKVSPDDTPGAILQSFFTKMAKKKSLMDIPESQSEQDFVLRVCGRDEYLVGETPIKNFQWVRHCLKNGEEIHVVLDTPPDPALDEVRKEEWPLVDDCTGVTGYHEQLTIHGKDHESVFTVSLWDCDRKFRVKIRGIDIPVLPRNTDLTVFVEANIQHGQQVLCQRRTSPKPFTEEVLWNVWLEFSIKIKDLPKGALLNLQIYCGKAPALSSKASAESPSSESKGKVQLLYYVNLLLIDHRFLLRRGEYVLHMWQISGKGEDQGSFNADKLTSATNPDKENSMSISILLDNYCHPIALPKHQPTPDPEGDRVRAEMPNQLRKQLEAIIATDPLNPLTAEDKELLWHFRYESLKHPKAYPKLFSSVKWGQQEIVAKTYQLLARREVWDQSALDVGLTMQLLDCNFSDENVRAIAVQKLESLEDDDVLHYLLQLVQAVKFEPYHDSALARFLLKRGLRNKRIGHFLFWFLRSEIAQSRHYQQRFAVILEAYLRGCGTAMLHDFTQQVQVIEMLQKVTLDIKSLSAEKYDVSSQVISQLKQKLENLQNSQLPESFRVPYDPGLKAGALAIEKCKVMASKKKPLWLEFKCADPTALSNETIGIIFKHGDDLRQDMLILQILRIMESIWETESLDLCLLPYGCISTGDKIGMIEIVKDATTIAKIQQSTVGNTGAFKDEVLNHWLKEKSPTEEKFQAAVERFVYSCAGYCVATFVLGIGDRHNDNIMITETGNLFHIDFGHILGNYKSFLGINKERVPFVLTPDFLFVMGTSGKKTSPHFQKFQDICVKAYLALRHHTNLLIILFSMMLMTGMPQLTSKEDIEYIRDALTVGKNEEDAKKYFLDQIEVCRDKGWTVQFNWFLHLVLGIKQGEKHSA
Serine-protein kinase ATM, sequence (Q13315 whole entry): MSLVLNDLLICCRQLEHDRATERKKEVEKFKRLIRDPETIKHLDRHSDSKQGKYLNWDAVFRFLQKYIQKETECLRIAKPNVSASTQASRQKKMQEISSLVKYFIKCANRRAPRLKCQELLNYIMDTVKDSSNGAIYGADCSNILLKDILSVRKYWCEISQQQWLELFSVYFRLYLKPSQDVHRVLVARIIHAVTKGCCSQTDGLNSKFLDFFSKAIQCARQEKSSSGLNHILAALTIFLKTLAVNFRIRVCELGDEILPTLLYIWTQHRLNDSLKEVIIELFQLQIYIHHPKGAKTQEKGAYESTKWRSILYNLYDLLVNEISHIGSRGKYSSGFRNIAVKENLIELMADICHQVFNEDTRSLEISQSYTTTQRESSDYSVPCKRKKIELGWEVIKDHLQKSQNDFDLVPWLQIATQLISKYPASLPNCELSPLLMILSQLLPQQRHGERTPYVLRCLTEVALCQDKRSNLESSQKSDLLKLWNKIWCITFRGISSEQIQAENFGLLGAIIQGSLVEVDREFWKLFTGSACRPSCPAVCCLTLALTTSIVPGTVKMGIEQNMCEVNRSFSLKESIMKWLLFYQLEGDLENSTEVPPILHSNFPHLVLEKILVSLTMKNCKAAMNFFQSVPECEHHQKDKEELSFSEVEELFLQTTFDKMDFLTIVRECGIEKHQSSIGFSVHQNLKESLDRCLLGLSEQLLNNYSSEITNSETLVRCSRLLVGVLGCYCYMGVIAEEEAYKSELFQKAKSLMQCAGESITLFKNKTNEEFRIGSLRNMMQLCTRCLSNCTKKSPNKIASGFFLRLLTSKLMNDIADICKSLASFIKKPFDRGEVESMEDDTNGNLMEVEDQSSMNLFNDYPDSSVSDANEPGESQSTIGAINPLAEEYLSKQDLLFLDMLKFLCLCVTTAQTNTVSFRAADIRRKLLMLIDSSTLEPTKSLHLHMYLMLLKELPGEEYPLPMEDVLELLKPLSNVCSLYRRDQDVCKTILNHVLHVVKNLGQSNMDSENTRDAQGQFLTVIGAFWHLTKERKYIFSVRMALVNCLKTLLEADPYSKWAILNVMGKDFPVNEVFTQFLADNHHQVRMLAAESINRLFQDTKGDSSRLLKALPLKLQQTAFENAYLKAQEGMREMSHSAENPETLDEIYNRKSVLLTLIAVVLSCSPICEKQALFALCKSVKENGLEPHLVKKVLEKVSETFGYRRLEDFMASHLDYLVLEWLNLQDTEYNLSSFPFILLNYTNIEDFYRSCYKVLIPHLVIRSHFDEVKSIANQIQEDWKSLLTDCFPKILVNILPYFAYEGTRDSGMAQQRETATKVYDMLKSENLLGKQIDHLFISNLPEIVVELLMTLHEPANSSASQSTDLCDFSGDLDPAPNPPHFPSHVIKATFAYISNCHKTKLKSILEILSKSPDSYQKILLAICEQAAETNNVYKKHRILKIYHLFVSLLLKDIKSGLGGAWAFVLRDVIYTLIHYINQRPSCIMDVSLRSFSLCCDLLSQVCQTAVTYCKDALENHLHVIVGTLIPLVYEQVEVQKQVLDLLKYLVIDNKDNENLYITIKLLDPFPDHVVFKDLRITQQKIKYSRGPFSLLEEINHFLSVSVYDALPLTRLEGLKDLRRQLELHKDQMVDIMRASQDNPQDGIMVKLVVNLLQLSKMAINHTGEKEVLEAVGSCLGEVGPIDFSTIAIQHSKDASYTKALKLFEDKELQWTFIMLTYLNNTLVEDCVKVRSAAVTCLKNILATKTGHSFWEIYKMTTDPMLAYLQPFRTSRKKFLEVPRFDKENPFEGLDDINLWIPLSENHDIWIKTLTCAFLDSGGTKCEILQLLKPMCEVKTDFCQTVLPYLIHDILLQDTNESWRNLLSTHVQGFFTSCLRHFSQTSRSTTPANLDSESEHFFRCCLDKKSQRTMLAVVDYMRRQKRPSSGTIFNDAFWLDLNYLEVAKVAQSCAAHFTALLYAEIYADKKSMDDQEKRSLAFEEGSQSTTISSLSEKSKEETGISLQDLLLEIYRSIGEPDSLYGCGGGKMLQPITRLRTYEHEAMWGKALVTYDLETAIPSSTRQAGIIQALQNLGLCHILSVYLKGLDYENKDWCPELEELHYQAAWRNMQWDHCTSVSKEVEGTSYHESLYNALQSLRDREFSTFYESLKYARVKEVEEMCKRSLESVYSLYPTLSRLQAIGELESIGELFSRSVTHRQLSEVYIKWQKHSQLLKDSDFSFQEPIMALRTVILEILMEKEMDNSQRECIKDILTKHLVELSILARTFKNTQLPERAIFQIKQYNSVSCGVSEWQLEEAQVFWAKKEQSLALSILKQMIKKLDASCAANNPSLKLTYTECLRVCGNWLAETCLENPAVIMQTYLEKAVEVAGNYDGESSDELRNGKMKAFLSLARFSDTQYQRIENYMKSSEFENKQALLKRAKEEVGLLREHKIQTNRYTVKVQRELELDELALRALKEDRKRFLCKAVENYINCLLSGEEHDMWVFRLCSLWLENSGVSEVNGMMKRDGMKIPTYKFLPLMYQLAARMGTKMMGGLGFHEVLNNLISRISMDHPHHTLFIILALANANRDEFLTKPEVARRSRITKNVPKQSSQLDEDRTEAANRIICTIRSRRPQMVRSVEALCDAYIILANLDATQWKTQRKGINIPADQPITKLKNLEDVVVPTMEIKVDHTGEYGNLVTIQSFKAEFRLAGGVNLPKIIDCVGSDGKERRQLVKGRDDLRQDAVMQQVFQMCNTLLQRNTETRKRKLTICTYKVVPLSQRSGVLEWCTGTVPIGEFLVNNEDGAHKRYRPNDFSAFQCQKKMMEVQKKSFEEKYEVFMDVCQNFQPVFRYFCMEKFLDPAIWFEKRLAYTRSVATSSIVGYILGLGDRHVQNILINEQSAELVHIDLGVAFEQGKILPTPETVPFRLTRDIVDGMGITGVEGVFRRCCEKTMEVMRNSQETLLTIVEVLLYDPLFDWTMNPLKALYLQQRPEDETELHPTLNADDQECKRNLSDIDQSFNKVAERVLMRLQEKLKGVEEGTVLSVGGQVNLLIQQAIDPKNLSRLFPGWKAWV

IC50 [1]: > 10 µM
IC50 [2]: > 10 µM
inhibition [15]: inactive
SMILES: C[C@H](c1ccccc1)n1nnc2cnc3ccc(-c4ccc(OCCCN(C)C)nc4)cc3c21
Activity (SW-620 [3]): inactive
Activity (SW-620 [4]): Dose-Dependent Effect
viability at 0.03 µM (SW-620 [5]): 47.2%
viability at 0.01 µM (SW-620 [6]): 64.1%
Activity (SW-620 [7]): 2.76%
Activity (SW-620 [8]): 1.88%
Activity (SW-620 [9]): 11.57%
viability at 1 µM (HCT-116 [10]): 62.1%
Activity (HCT-116 [11]): 7.04%
Activity (HCT-116 [12]): 1.21%
Activity (HCT-116 [13]): 14.21%
inhibition [14]: Dose-Dependent Effect
